Measured values reported in US12459951B2, “Compounds that interact with RAS superfamily proteins for treatment of cancers, inflammatory diseases, rasopathies, and fibrotic disease” (SHY Therapeutics, LLC, priority 2022, dated 2025).
Where two headings read alike, the source gives them in different places.

Tests used:
[1] = system: MiaPaca-2 (expressing KRAS G12C mutant); test: Proliferation Assay (Cell Viability Assay); assay type: cell-based; settings: Homo sapiens, MIA PaCa-2
Method in brief: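 MiaPaca-2 cells (KRAS G12C) were grown in DMEM-high glucose with 10% FBS, seeded at 2000–5000 cells/well and cultured overnight. Compounds were added at 10 μM final, or as serial dilutions for IC50, in 0.3% DMSO/10% FBS for 2–4 days at 37 °C, 5% CO2. Viability was measured with CellTiter 96 Aqueous One and % inhibition calculated.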

Erk1/2 phosphorylation = test: Erk1/2 Phosphorylation Assay (western blot), Panc-1; assay type: cell-based, human; settings: at 10 μM, * = activation
Method in brief: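 KRas G12D Panc-1 cells were treated 6 h at 37° C with compound at 10 μM or serial dilutions for IC50 (0.3% DMSO). In method 1, cells were serum-starved overnight (0.5% FBS) and then given 1.5 ng/ml EGF for 15 min. In method 2, cells stayed in 10% FBS without stimulation. Lysate phospho-Erk1/2 (Thr202/Tyr204) was read by western blot.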

IL6 = test: IL-6 Quantification Assay (ELISA), LPS-stimulated RAW 264.7; assay type: cell-based; set-up: inhibition: dose or concentration left out as unconfirmed; settings: Mus musculus, RAW264.7; read-out: IL-6: % inh.
TNF-alpha = TNF-alpha Quantification Assay (ELISA), LPS-stimulated RAW 264.7; assay type: cell-based; settings: Mus musculus, RAW264.7; at 10 μM; read-out: TNFα: % inh.
[2] = read-out: Proliferation in MiaPaca-2: IC50

IC50 [1, 2] | IC50 ([1]; Proliferation assay, MiaPaca-2, read-out: MiaPaca-2 IC50 (nM) Pancreatic) | Structure (SMILES) | % inh of Erk1/2 phosphorylation in Panc-1 (Erk1/2 phosphorylation) | inhibition (IL6) | inhibition at 10 µM (TNF-alpha)
< 150 nM |  | Cc1c(-c2ccn(C)n2)cn2nc(-c3nccn3C)nc(Nc3ccccn3)c12 [Compound 118, 5-Methyl-2-(1-methyl-1H-imidazol-2-yl)-6-(1-methyl-1H-pyrazol-3-yl)-N-(pyridin-2-yl)pyrrolo[2,1-f][1,2,4]triazin-4-amine] | D* (85-100% activation) | 25 to 49% | 1 to 24%
510 to 1000 nM |  | Cc1c(-c2ccn(C)n2)cn2nc(-c3nccn3C)nc(Nc3nnco3)c12.Cl [Compound 119, N-(5-Methyl-2-(1-methyl-1H-imidazol-2-yl)-6-(1-methyl-1H-pyrazol-3-yl)pyrrolo[2,1-f][1,2,4]triazin-4-yl)-1,3,4-oxadiazol-2-amine hydrochloride salt] | A* (1-25% activation) | 50 to 74% | 25 to 49%
< 150 nM |  | Cc1c(-c2ccn(C)n2)cn2nc(-c3nccn3C)nc(Nc3cnccn3)c12 [Compound 120, 5-Methyl-2-(1-methyl-1H-imidazol-2-yl)-6-(1-methyl-1H-pyrazol-3-yl)-N-(pyrazin-2-yl)pyrrolo[2,1-f][1,2,4]triazin-4-amine] | C* (46-84% activation) | 25 to 49% | 1 to 24%
510 to 1000 nM |  | Cc1c(-c2ccn(C(C)C)n2)cn2nc(-c3nccn3C)nc(Nc3nccc(OCCO)n3)c12 [Compound 121, 2-((2-((6-(1-Isopropyl-1H-pyrazol-3-yl)-5-methyl-2-(1-methyl-1H-imidazol-2-yl)pyrrolo[2,1-f][1,2,4]triazin-4-yl)amino)pyrimidin-4-yl)oxy)ethan-1-ol] | D* (85-100% activation) | 50 to 74% | 25 to 49%
< 150 nM |  | COCCOc1cc(Nc2nc(-c3nccn3C)nn3cc(-c4ccn(C(C)C)n4)c(C)c23)ncn1 [Compound 122, 6-(1-Isopropyl-1H-pyrazol-3-yl)-N-(6-(2-methoxyethoxy)pyrimidin-4-yl)-5-methyl-2-(1-methyl-1H-imidazol-2-yl)pyrrolo[2,1-f][1,2,4]triazin-4-amine] | A* (1-25% activation) | 50 to 74% | 1 to 24%
< 150 nM |  | Cc1c(-c2ccn(C(C)C)n2)cn2nc(-c3nccn3C)nc(Nc3cc(OCCN(C)C)ncn3)c12 [Compound 123, N-(6-(2-(Dimethylamino)ethoxy)pyrimidin-4-yl)-6-(1-isopropyl-1H-pyrazol-3-yl)-5-methyl-2-(1-methyl-1H-imidazol-2-yl)pyrrolo[2,1-f][1,2,4]triazin-4-amine] | A* (1-25% activation) | 75 to 100% | 25 to 49%
< 150 nM | 1 to 10 nM | Cc1c(-c2ccn(C)n2)cn2nc(-c3nccn3C)nc(Nc3cc4n(n3)CCO4)c12 [Compound 124, N-(5-Methyl-2-(1-methyl-1H-imidazol-2-yl)-6-(1-methyl-1H-pyrazol-3-yl)pyrrolo[2,1-f][1,2,4]triazin-4-yl)-2,3-dihydropyrazolo[5,1-b]oxazol-6-amine] | C* (46-84% activation) | 25 to 49% | 1 to 24%
150 to 500 nM |  | Cc1c(-c2ccn(C(C)C)n2)cn2nc(-c3nccn3C)nc(Nc3ncc[nH]3)c12 [Compound 125, N-(1H-Imidazol-2-yl)-6-(1-isopropyl-1H-pyrazol-3-yl)-5-methyl-2-(1-methyl-1H-imidazol-2-yl)pyrrolo[2,1-f][1,2,4]triazin-4-amine] | A (1-25% inhibition) | 50 to 74% | 1 to 24%
< 150 nM |  | Cc1c(-c2ccn(C)n2)cn2nc(-c3nccn3C)nc(Nc3cc(OC4CC4)ccn3)c12 [Compound 126, N-(4-Cyclopropoxypyridin-2-yl)-5-methyl-2-(1-methyl-1H-imidazol-2-yl)-6-(1-methyl-1H-pyrazol-3-yl)pyrrolo[2,1-f][1,2,4]triazin-4-amine] | D* (85-100% activation) | 25 to 49% | 0%
< 150 nM |  | Cc1c(-c2ccn(C)n2)cn2nc(-c3nccn3C)nc(Nc3cc(OC(F)(F)F)ccn3)c12 [Compound 127, 5-Methyl-2-(1-methyl-1H-imidazol-2-yl)-6-(1-methyl-1H-pyrazol-3-yl)-N-(4-(trifluoromethoxy)pyridin-2-yl)pyrrolo[2,1-f][1,2,4]triazin-4-amine] | D* (85-100% activation) | 50 to 74% | 0%
< 150 nM |  | Cc1c(-c2ccn(C)n2)cn2nc(-c3nccn3C)nc(Nc3cc(OC(F)F)ccn3)c12 [Compound 128, N-(4-(Difluoromethoxy)pyridin-2-yl)-5-methyl-2-(1-methyl-1H-imidazol-2-yl)-6-(1-methyl-1H-pyrazol-3-yl)pyrrolo[2,1-f][1,2,4]triazin-4-amine] | D* (85-100% activation) | 25 to 49% | 25 to 49%
< 150 nM |  | Cc1c(-c2ccn(C)n2)cn2nc(-c3nccn3C)nc(Nc3cc(OCC(F)(F)F)ccn3)c12 [Compound 129, 5-Methyl-2-(1-methyl-1H-imidazol-2-yl)-6-(1-methyl-1H-pyrazol-3-yl)-N-(4-(2,2,2-trifluoroethoxy)pyridin-2-yl)pyrrolo[2,1-f][1,2,4]triazin-4-amine] | D* (85-100% activation) | 50 to 74% | 1 to 24%
> 1000 nM |  | COCCO[C@H]1C[C@H](Nc2nc(-c3nccn3C)nn3cc(-c4ccn(C)n4)c(C)c23)C1 [Compound 130, N-((1r,3r)-3-(2-Methoxyethoxy)cyclobutyl)-5-methyl-2-(1-methyl-1H-imidazol-2-yl)-6-(1-methyl-1H-pyrazol-3-yl)pyrrolo[2,1-f][1,2,4]triazin-4-amine] | B* (26-49% activation) | 0% | 1 to 24%
> 1000 nM |  | CO[C@H]1C[C@@H](Nc2nc(-c3nccn3C)nn3cc(-c4ccn(C)n4)c(C)c23)C1 [Compound 131, N-((1s,3s)-3-Methoxycyclobutyl)-5-methyl-2-(1-methyl-1H-imidazol-2-yl)-6-(1-methyl-1H-pyrazol-3-yl)pyrrolo[2,1-f][1,2,4]triazin-4-amine] | A* (1-25% activation) | 0% | 1 to 24%
> 1000 nM |  | Cc1c(-c2ccn(C3CC3)n2)cn2nc(-c3nccn3C)nc(O)c12 [Compound 134, 6-(1-Cyclopropyl-1H-pyrazol-3-yl)-5-methyl-2-(1-methyl-1H-imidazol-2-yl)pyrrolo[2,1-f][1,2,4]triazin-4-ol] | B (26-49% inhibition) | 1 to 24% | 1 to 24%
< 150 nM |  | COc1cc(Nc2nc(-c3nccn3C)nn3cc(-c4ccn(C5CC5)n4)c(C)c23)ncn1 [Compound 135, 6-(1-Cyclopropyl-1H-pyrazol-3-yl)-N-(6-methoxypyrimidin-4-yl)-5-methyl-2-(1-methyl-1H-imidazol-2-yl)pyrrolo[2,1-f][1,2,4]triazin-4-amine] | D* (85-100% activation) | 25 to 49% | 1 to 24%
< 150 nM |  | Cc1c(-c2ccn(C)n2)cn2nc(-c3nccn3C)nc(Nc3cc(OC(C)C)ccn3)c12 [Compound 136, N-(4-Isopropoxypyridin-2-yl)-5-methyl-2-(1-methyl-1H-imidazol-2-yl)-6-(1-methyl-1H-pyrazol-3-yl)pyrrolo[2,1-f][1,2,4]triazin-4-amine] | D* (85-100% activation) | 25 to 49% | 1 to 24%
< 150 nM |  | COc1ccnc(Nc2nc(-c3nccn3C)nn3cc(-c4ccn(C5CC5)n4)c(C)c23)c1 [Compound 137, 6-(1-Cyclopropyl-1H-pyrazol-3-yl)-N-(4-methoxypyridin-2-yl)-5-methyl-2-(1-methyl-1H-imidazol-2-yl)pyrrolo[2,1-f][1,2,4]triazin-4-amine] | B* (26-49% activation) | 1 to 24% | 1 to 24%
< 150 nM |  | Cc1c(-c2ccn(C3CC3)n2)cn2nc(-c3nccn3C)nc(Nc3cc(OC(F)(F)F)ccn3)c12 [Compound 138, 6-(1-Cyclopropyl-1H-pyrazol-3-yl)-5-methyl-2-(1-methyl-1H-imidazol-2-yl)-N-(4-(trifluoromethoxy)pyridin-2-yl)pyrrolo[2,1-f][1,2,4]triazin-4-amine] | D* (85-100% activation) | 50 to 74% | 0%
< 150 nM |  | Cc1c(-c2ccn(C3CC3)n2)cn2nc(-c3nccn3C)nc(Nc3cc(OC(F)F)ccn3)c12 [Compound 139, 6-(1-Cyclopropyl-1H-pyrazol-3-yl)-N-(4-(difluoromethoxy)pyridin-2-yl)-5-methyl-2-(1-methyl-1H-imidazol-2-yl)pyrrolo[2,1-f][1,2,4]triazin-4-amine] | D* (85-100% activation) | 50 to 74% | 1 to 24%
